# From US20260001893A1, “SMALL MOLECULE MODULATORS OF STAT6” (Gilead Sciences, Inc., priority 2024, published 2026)
# Tested on: Eotaxin-3 (CCL26) release in human whole blood stimulated with IL-4
# Assay: Human whole blood eotaxin-3 assay (IL-4 stimulated eotaxin-3 release)
# Type: cell-based
# Conditions: Homo sapiens, 48 h, human whole blood stimulated with recombinant human IL-4, 48 h; given for test compounds with <80% Emax; geometric mean
# Protocol: Human Whole Blood Eotaxin-3 Assay
# This was a human whole blood assay using recombinant human Interleukin 4 to stimulate the blood and measuring the ability of the test compounds to inhibit eotaxin-3 release. The biological activities of the test compounds have been tested in human whole blood stimulated with IL-4 measuring Eotaxin-3 release. The test compounds were added to 384 well clear flat-bottom plate in a 4-fold serial dilution in triplicates using a liquid handler. Human whole blood stabilized in lithium-heparin tubes was added in a volume of 65 μL per well, resulting in a final DMSO concentration of 0.5%. The plate is incubated for 2 h at 37° C. under 5% CO2/95% air. Subsequently, 5 μL of recombinant human IL-4 (R&D Systems, cat #204-ILB) was added to the wells to a final concentration of […]. The plate was incubated for 48 h at 37° C. under 5% CO2/95% air. The plate was spun down for 10 minutes at 500×g and 20 μL supernatant was harvested and transferred to a 384 well v-bottom plate using a liquid handler and stored at −20° C. until further analysis. 10 μL supernatant was used to measure the level of Eotaxin-3 (CCL26) using Human Eotaxin-3 MSD kit from Mesocsale (Cat #K251UEK-4). The assay was performed according to the manufacture instructions.
# The data from the human whole blood eotaxin-3 assay is shown below for Examples 1ab3, 1ab6, 1d23, and 1d4 (where the effect in % is plotted against the test concentration in M on a log-scale).
row,Structure (SMILES),Emax [%]
1,"[2H]C([2H])([2H])N(C(=O)c1ccc(C2CCN([C@@H](C)c3cc4c(-n5c(F)cc(NC)cc5=O)ccnc4n3C)CC2)cc1)C([2H])([2H])[2H] [Example 1m97, 4-(1-((1S)-1-(4-(6-fluoro-4-(methylamino)-2-oxopyridin-1 (2H)-yl)-1-methyl-1H-pyrrolo[2,3-b]pyridin-2-yl)ethyl)piperidin-4-yl)-N,N-bis(methyl-d3)benzamide]",10 to 20

# Same assay, conditions: Homo sapiens, 48 h, human whole blood stimulated with recombinant human IL-4, 48 h; inhibition of eotaxin-3 release; given for test compounds with >80% Emax; geometric mean
row,Structure (SMILES),EC50 [nM]
1,"[2H]C([2H])([2H])N(C(=O)c1cc(F)c(C2=CCN(Cc3cc4c(-n5ccc6c(c5=O)CCN6)ccnc4n3C)CC2)c(F)c1)C([2H])([2H])[2H] [Example 1m115, 3,5-difluoro-N,N-bis(methyl-d3)-4-(1-((1-methyl-4-(4-oxo-1,2,3,4-tetrahydro-5H-pyrrolo[3,2-c]pyridin-5-yl)-1H-pyrrolo[2,3-b]pyridin-2-yl)methyl)-1,2,3,6-tetrahydropyridin-4-yl)benzamide]",20.4
2,"CNc1ccn(-c2ccnc3c2cc(CN2CCC(c4c(F)cc(C(=O)N(C)C)cc4F)CC2)n3C)c(=O)c1 [Example 1m91, 3,5-difluoro-N,N-dimethyl-4-(1-((1-methyl-4-(4-(methylamino)-2-oxopyridin-1 (2H)-yl)-1H-pyrrolo[2,3-b]pyridin-2-yl)methyl)piperidin-4-yl)benzamide]",45.5
3,"[2H]C([2H])([2H])N(C(=O)c1cc(C)c(C2=CCN(Cc3cc4c(-n5cc(F)c(N)cc5=O)ccnc4n3C)CC2)c(F)c1)C([2H])([2H])[2H] [Example 1ad11, 4-(1-((4-(4-amino-5-fluoro-2-oxopyridin-1 (2H)-yl)-1-methyl-1H-pyrrolo[2,3-b]pyridin-2-yl)methyl)-1,2,3,6-tetrahydropyridin-4-yl)-3-fluoro-5-methyl-N,N-bis(methyl-d3)benzamide]",11.3
4,"Cc1cc(C(=O)N(C)C)cc(F)c1C1=CCN(Cc2cc3c(-n4ccc5c(c4=O)CCN5)ccnc3n2C)CC1 [Example 1m101, 3-fluoro-N,N,5-trimethyl-4-(1-((1-methyl-4-(4-oxo-1,2,3,4-tetrahydro-5H-pyrrolo[3,2-c]pyridin-5-yl)-1H-pyrrolo[2,3-b]pyridin-2-yl)methyl)-1,2,3,6-tetrahydropyridin-4-yl)benzamide]",3.02
5,"[2H]C([2H])([2H])N(C(=O)c1ccc(C2CCN([C@@H](C)c3cc4c(-n5ccc6[nH]ncc6c5=O)ccnc4n3C)CC2)cc1)C([2H])([2H])[2H] [Example 1m89, (S)—N,N-bis(methyl-d3)-4-(1-(1-(1-methyl-4-(4-oxo-1,4-dihydro-5H-pyrazolo[4,3-c]pyridin-5-yl)-1H-pyrrolo[2,3-b]pyridin-2-yl)ethyl)piperidin-4-yl)benzamide]",5.87
6,"Cc1cc(C(=O)N(C)C)ccc1C1=CCN([C@H](C)c2cc3c(-n4ccc(N)c(F)c4=O)ccnc3n2C)CC1 [Example 1m86, (R)-4-(1-(1-(4-(4-amino-3-fluoro-2-oxopyridin-1 (2H)-yl)-1-methyl-1H-pyrrolo[2,3-b]pyridin-2-yl)ethyl)-1,2,3,6-tetrahydropyridin-4-yl)-N,N,3-trimethylbenzamide]",672
7,"[2H]C([2H])([2H])N(C(=O)c1cc(C)c(C2=CCN(Cc3cc4c(-n5ccc(NC)nc5=O)ccnc4n3C)CC2)c(F)c1)C([2H])([2H])[2H] [Example 1m96, 3-fluoro-5-methyl-N,N-bis(methyl-d3)-4-(1-((1-methyl-4-(4-(methylamino)-2-oxopyrimidin-1 (2H)-yl)-1H-pyrrolo[2,3-b]pyridin-2-yl)methyl)-1,2,3,6-tetrahydropyridin-4-yl)benzamide]",3.52
8,"[2H]C([2H])([2H])N(C(=O)c1ccc(C2CCN([C@@H](C)c3cc4c(-n5ccc6[nH]nc(C(F)(F)F)c6c5=O)ccnc4n3C)CC2)cc1)C([2H])([2H])[2H] [Example 1m147, (S)—N,N-bis(methyl-d3)-4-(1-(1-(1-methyl-4-(4-oxo-3-(trifluoromethyl)-1,4-dihydro-5H-pyrazolo[4,3-c]pyridin-5-yl)-1H-pyrrolo[2,3-b]pyridin-2-yl)ethyl)piperidin-4-yl)benzamide]",60.1
9,"Cc1cc(C(=O)N(C)C)cc(F)c1C1=CCN([C@@H](C)c2cc3c(-n4cc(F)c(N)cc4=O)ccnc3n2C)CC1 [Example 1m111, (S)-4-(1-(1-(4-(4-amino-5-fluoro-2-oxopyridin-1 (2H)-yl)-1-methyl-1H-pyrrolo[2,3-b]pyridin-2-yl)ethyl)-1,2,3,6-tetrahydropyridin-4-yl)-3-fluoro-N,N,5-trimethylbenzamide]",6.98
10,"CNc1cc(=O)n(-c2ccnc3c2cc([C@H](C)N2CCC(c4c(C)cc(C(=O)N(C)C)cc4F)CC2)n3C)cc1F [Example 1m131, (S)-3-fluoro-4-(1-(1-(4-(5-fluoro-4-(methylamino)-2-oxopyridin-1 (2H)-yl)-1-methyl-1H-pyrrolo[2,3-b]pyridin-2-yl)ethyl)piperidin-4-yl)-N,N,5-trimethylbenzamide]",891
11,"CNc1cc(=O)n(-c2ccnc3c2cc([C@H](C)N2CC=C(c4c(C)cc(C(=O)N(C)C)cc4F)CC2)n3C)cc1F [Example 1m124, (S)-3-fluoro-4-(1-(1-(4-(5-fluoro-4-(methylamino)-2-oxopyridin-1 (2H)-yl)-1-methyl-1H-pyrrolo[2,3-b]pyridin-2-yl)ethyl)-1,2,3,6-tetrahydropyridin-4-yl)-N,N,5-trimethylbenzamide]",7.6
12,"CNc1ccn(-c2ccnc3c2cc([C@H](C)N2CC=C(c4c(C)cc(C(=O)N(C)C)cc4F)CC2)n3C)c(=O)c1OC [Example 1m138, (S)-3-fluoro-4-(1-(1-(4-(3-methoxy-4-(methylamino)-2-oxopyridin-1 (2H)-yl)-1-methyl-1H-pyrrolo[2,3-b]pyridin-2-yl)ethyl)-1,2,3,6-tetrahydropyridin-4-yl)-N,N,5-trimethylbenzamide]",229
13,"[2H]C([2H])([2H])N(C(=O)c1cc(C)c(C2=CCN(Cc3cc4c(-n5ccc(NC)cc5=O)ccnc4n3C)CC2)c(F)c1)C([2H])([2H])[2H] [Example 1ad8, 3-Fluoro-5-methyl-N,N-bis(methyl-d3)-4-(1-((1-methyl-4-(4-(methylamino)-2-oxopyridin-1 (2H)-yl)-1H-pyrrolo[2,3-b]pyridin-2-yl)methyl)-1,2,3,6-tetrahydropyridin-4-yl)benzamide]",8.9
14,"CNc1ccn(-c2ccnc3c2cc(CN2CC=C(c4c(C)cc(C(=O)N(C)C)cc4F)CC2)n3C)c(=O)c1C [Example 1m104, 3-fluoro-N,N,5-trimethyl-4-(1-((1-methyl-4-(3-methyl-4-(methylamino)-2-oxopyridin-1 (2H)-yl)-1H-pyrrolo[2,3-b]pyridin-2-yl)methyl)-1,2,3,6-tetrahydropyridin-4-yl)benzamide]",156
15,"[2H]C([2H])([2H])N(C(=O)c1cc(C)c(C2=CCN(Cc3cc4c(-n5ccc6c(c5=O)CCN6)ccnc4n3C)CC2)c(F)c1)C([2H])([2H])[2H] [Example 1ad7, 3-Fluoro-5-methyl-N,N-bis(methyl-d3)-4-(1-((1-methyl-4-(4-oxo-1,2,3,4-tetrahydro-5H-pyrrolo[3,2-c]pyridin-5-yl)-1H-pyrrolo[2,3-b]pyridin-2-yl)methyl)-1,2,3,6-tetrahydropyridin-4-yl)benzamide]",6.8
16,"CNc1ccn(-c2ccnc3c2cc([C@@H](C)N2CC[C@H](c4c(C)cc(C(=O)N(C)C)cc4F)C(F)(F)C2)n3C)c(=O)c1 (single isomer, unassigned) [Example 1m144]",2170
